Tests used:
[1] = test system: peripheral blood lymphocytes; assay: Blood lymphocyte depletion in vivo; conditions: rats, p.o., after 6 h
Description: B. In Vivo: Blood Lymphocyte Depletion
A compound of formula I or the vehicle is administered orally by gavage to rats. Tail blood for hematological monitoring is obtained on day −1 to give the baseline individual values, and at 2, 6, 24, 48 and 72 hours after application. In this assay, the compounds of formula I deplete peripheral blood lymphocytes when administered at a dose of 0.03 to 3 mg/kg. For example, following results are obtained: depletion of peripheral blood lymphocytes by more than 50%.

[2] = biological target: T1, human S1P receptor EDG-1 (S1P1) (Homo sapiens, UniProt P21453); assay: S1P receptor profiling, GTP[γ-35S] binding SPA; assay type: biochemical; set-up: key to S1P1 mode of action: Agon = agonist; conditions: for EC50: membranes of transfected CHO or RH7777 cells
T1 construct: expressed in transfected cells
T1 sequence (P21453 whole entry): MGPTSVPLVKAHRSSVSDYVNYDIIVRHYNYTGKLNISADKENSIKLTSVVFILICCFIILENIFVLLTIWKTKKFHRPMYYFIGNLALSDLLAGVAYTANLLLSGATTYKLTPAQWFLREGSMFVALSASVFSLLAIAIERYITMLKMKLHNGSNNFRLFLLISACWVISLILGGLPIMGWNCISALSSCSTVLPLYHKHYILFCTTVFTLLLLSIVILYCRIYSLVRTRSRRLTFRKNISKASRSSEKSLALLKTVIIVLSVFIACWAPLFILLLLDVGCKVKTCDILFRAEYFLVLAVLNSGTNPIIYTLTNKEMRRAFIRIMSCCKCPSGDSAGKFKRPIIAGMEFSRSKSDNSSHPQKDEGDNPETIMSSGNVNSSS
Description: (§1) Sphingosine-1-phosphate (S1P) Receptor Profiling
(§2) Agonist activities of compounds are tested on the human S1P receptors EDG-1 (S1P1), EDG-3 (S1P3), EDG-5 (S1P2), EDG-6 (S1P4) and EDG-8 (S1P5). […] The assay technology used is SPA (scintillation proximity based assay). Briefly, DMSO dissolved compounds are serially diluted and added to SPA-bead (Amersham-Pharmacia) immobilised SIP receptor expressing membrane protein (10-20 μg/well) in the presence of 50 mM Hepes, 100 mM NaCl, 10 mM MgCl2, 10 μM GDP, 0.1% fat free BSA and 0.2 nM GTP [γ-^35S] (1200 Ci/mmol). After incubation in 96 well microtiterplates at RT for 120 min, unbound GTP [γ-^35S] is separated by a centrifugation step. Luminescence of SPA beads triggered by membrane bound GTP [γ-^35S] is quantified with a TOPcount plate reader (Packard). EC50s are calculated using standard curve fitting software. In this assay, the compounds of formula I have a binding affinity to S1P1 receptor <50 nM.

[3] = biological target: T2, human S1P receptor EDG-8 (S1P5) (Homo sapiens, UniProt Q9H228); assay: S1P receptor profiling, GTP[γ-35S] binding SPA; assay type: biochemical; set-up: key to S1P5 mode of action: Agon = agonist; conditions: for EC50: membranes of transfected CHO or RH7777 cells
T2 construct: expressed in transfected cells
T2 sequence (Q9H228 whole entry): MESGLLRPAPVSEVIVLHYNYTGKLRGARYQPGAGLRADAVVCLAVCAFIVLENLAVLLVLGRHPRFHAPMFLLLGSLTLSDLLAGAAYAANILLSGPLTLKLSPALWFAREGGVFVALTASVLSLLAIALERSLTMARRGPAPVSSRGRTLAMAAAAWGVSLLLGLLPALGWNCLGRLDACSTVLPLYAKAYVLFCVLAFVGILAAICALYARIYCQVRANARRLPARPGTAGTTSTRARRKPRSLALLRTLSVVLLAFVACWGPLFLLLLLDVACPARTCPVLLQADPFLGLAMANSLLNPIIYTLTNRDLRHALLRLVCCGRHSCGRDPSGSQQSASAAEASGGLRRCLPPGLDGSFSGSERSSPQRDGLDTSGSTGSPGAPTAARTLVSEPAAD
Description: as §1, §2

[4] = biological target: T3, human S1P receptor EDG-3 (S1P3) (Homo sapiens, UniProt Q99500); assay: S1P receptor profiling, GTP[γ-35S] binding SPA; assay type: biochemical; set-up: key to S1P3 mode of action: Agon = agonist; conditions: for EC50: membranes of transfected CHO or RH7777 cells
T3 construct: expressed in transfected cells
T3 sequence (Q99500 whole entry): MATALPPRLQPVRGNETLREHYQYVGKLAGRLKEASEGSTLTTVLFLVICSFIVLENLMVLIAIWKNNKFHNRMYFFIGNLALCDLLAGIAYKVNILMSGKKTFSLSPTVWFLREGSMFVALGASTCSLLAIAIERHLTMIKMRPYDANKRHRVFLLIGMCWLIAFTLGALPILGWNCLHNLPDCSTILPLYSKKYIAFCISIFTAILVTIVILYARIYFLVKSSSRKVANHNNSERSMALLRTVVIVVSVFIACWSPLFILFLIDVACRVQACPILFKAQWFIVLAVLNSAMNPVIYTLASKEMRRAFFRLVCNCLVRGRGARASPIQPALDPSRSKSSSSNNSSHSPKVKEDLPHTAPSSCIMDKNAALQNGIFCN
Description: as §1, §2

[5] = biological target: T4, human S1P receptor EDG-6 (S1P4) (Homo sapiens, UniProt O95977); assay: S1P receptor profiling, GTP[γ-35S] binding SPA; assay type: biochemical; set-up: key to S1P4 mode of action: Agon = agonist; conditions: for EC50: membranes of transfected CHO or RH7777 cells
T4 construct: expressed in transfected cells
T4 sequence (O95977 1-384): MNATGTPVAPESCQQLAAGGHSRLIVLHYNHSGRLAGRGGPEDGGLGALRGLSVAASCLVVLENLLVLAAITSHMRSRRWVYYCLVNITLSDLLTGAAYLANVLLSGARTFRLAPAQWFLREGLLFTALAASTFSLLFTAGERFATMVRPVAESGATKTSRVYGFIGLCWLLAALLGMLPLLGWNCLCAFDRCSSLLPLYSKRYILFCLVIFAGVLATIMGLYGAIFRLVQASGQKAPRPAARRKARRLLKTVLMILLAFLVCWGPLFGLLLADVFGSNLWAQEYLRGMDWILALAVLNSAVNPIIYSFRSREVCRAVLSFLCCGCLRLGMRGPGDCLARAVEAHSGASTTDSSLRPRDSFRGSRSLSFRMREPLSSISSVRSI
Description: as §1, §2

Compound | dose giving depletion of peripheral blood lymphocytes by more than 50% [1] | S1P1 mode of action [2] | EC50 [2] | S1P5 mode of action [3] | EC50 [3] | S1P3 mode of action [4] | EC50 [4] | S1P4 mode of action [5] | EC50 [5]
C[C@@H](O)[C@](C)(N)CCc1ccc(OCCCCc2ccccc2)cc1 [Example 14, (2R,3R)-3-Amino-3-methyl-5-[4-(4-phenyl-butoxy)-phenyl]-pentan-2-ol] | 0.1 mg/kg | – | – | – | – | – | – | – | –
CCCCCCCOc1ccc(CC[C@@](C)(N)[C@@H](C)O)cc1 [Example 1, (2R,3R)-3-Amino-5-(4-heptyloxy-phenyl)-3-methyl-pentan-2-ol] | 0.07 mg/kg | – | – | – | – | – | – | – | –
CCCCCOc1ccc2cc(CC[C@@](C)(N)[C@@H](C)OP(=O)(O)O)ccc2c1 [Example 20, Phosphoric acid mono-[(1R,2R)-2-amino-1,2-dimethyl-4-(6-pentyloxy-naphthalen-2-yl)-butyl]ester] | – | Agon | 0.13 nM | Agon | 0.29 nM | Agon | 8.5 nM | Agon | 0.67 nM
C[C@H](O)[C@](C)(N)CCc1ccc(OCCCCc2ccccc2)cc1 [Example 15, (2S,3R)-3-Amino-3-methyl-5-[4-(4-phenyl-butoxy)-phenyl]-pentan-2-ol] | 0.6 mg/kg | – | – | – | – | – | – | – | –
C[C@@H](O)[C@](C)(N)CCc1ccc(OCCc2ccc(-c3ccccc3)cc2)cc1 [Example 17, (2R,3R)-3-Amino-5-[4-(2-biphenyl-4-yl-ethoxy)-phenyl]-3-methyl-pentan-2-ol] | 0.2 mg/kg | – | – | – | – | – | – | – | –
C[C@H](O)[C@](C)(N)CCc1ccc(OCCCCCc2ccccc2)cc1 [Example 13, (2S,3R)-3-Amino-3-methyl-5-[4-(5-phenyl-pentyloxy)-phenyl]-pentan-2-ol] | 0.5 mg/kg | – | – | – | – | – | – | – | –
CCCCCOc1ccc2cc(CC[C@@](C)(N)[C@@H](C)O)ccc2c1 [Example 12, (2R,3R)-3-Amino-5-(6-pentyloxy-naphthalen-2-yl)-3-methyl-pentan-2-ol] | 0.4 mg/kg | – | – | – | – | – | – | – | –
CCCCCCCOc1ccc(CC[C@@](C)(N)[C@H](C)OP(=O)(O)O)cc1 [Example 19, Phosphoric acid mono-[(1S,2R)-2-amino-4-(4-heptyloxy-phenyl)-1,2-dimethyl-butyl]ester] | – | Agon | 0.07 nM | Agon | 0.15 nM | Agon | 1.4 nM | Agon | 0.4 nM
CCCCCCCOc1ccc(CC[C@@](C)(N)[C@@H](C)OP(=O)(O)O)cc1 [Example 18, Phosphoric acid mono-[(1R,2R)-2-amino-4-(4-heptyloxy-phenyl)-1,2-dimethyl-butyl]ester] | – | Agon | 0.51 nM | Agon | 0.74 nM | Agon | 4.6 nM | Agon | 0.7 nM
